The values below come from patent US8071575B2, “Methods and compounds for the targeted delivery of agents to bone for interaction therewith” (priority 2007, dated 2011).

In brackets after ≈: the same amount, converted by molar mass.

Test [1] has as its system Staphylococcus aureus ATCC 33591. The test is described as follows: MIC, broth microdilution, S. aureus ATCC 33591 (MRSA). The class given is cell-based. The settings on record: read-out: minimum inhibitory concentration (MIC). As to the method: (§1) Antimicrobial Effect: Minimum Inhibitory Concentration (MIC) of a Test Compound Against Isolates of Staphylococcus aureus. The Minimum inhibitory concentration (MIC) of compounds of the presently-disclosed subject matter including a bone active portion (RA) derived from an antimicrobial agent, and free antimicrobial agents, were determined by Ricerca Biosciences LLC (Concord, Ohio) using the standard in vitro broth microdilution assay (CLSI). Two isolates of S. aureus, one resistant to Methicillin (ATCC 33591) and one nonresistant to Methicillin (ATCC 49230) were used for the evaluation. ATCC 49230 is a clinical isolate from a patient with chronic osteomyelitis. Additionally, a quality control isolate (ATCC 29213) was included in the analysis. Briefly, twelve, serial, one-half dilutions of compounds of the presently-disclosed subject matter including a bone active portion (RA) derived from an antimicrobial agent, and free antimicrobial agents, were prepared in 96-well plates in Mueller Hinton Broth (MHB). The highest concentration of each compound used was 64 μg/mL. Bacterial suspensions were prepared and added to each well at a concentration of approximately 5×10^5 colony-forming-units per milliliter. The inoculated plates were incubated for 16-20 h at 35±1° C. At the completion of incubation, the wells of each plate were evaluated visually for the presence of bacterial growth. […]
(Broth dilution looks for growth in wells or tubes with falling amounts of substance.)

For test [2], the system named is Staphylococcus aureus ATCC 29213. The following applies: ATCC 29213, QC strain, acceptance range; cited from earlier work.
For test [3] the test system is unchanged. The test is described as follows: MIC, broth microdilution, S. aureus ATCC 29213 (QC strain). The class given is cell-based. The following applies: ATCC29213, read-out: minimum inhibitory concentration (MIC). As to the method: as §1
The subject of test [4] is Staphylococcus aureus ATCC 49230. In words: MIC, broth microdilution, S. aureus ATCC 49230. The class given is cell-based. The following applies: ATCC49230, read-out: minimum inhibitory concentration (MIC). The procedure:
as §1

Take `CN[C@H](CC(C)C)C(=O)N[C@H]1C(=O)N[C@@H](CC(N)=O)C(=O)N[C@H]2C(=O)N[C@H]3C(=O)N[C@H](C(=O)N[C@H](C(=O)O)c4cc(O)cc(O)c4-c4cc3ccc4O)[C@H](O)c3ccc(c(Cl)c3)Oc3cc2cc(c3O[C@@H]2O[C@H](CO)[C@@H](O)[C@H](O)[C@H]2O[C@H]2C[C@](C)(N)[C@H](O)[C@H](C)O2)Oc2ccc(cc2Cl)[C@H]1O` [vancomycin]: the MIC in test [1], in test [3] and in test [4] was 1 µg/mL (≈ 0.69 µM) each time. The “acceptable vancomycin MIC range” value in test [2] is recorded as “^cQC strain: Acceptable vancomycin MIC range: 0.5-2 μg/mL”.
